The results in this text go back to ChEMBL document CHEMBL1201862, “PubChem BioAssay data set” (2004).

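Values below derive from 48-hour exposures of cells grown in 96-well plates, with endpoints linearly interpolated between the two concentrations bracketing the appropriate inhibition level. GI50 = concentration required for 50% inhibition of growth.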 Calls of active or inactive are those of the source. Cut-off read from the data, not from the text of the source: active = GI50 up to about 1.1 µM and inactive = higher. Starred links: 1 amine or outer side, 2 acyl side, 3 side chain; linkers in the order of their positions; H or OH if unused. Positions of bridges follow the written chain, without caps; N, C: chain ends. Where a SMILES comes first, the peptide text is derived from it. Non-standard residues stand in square brackets, D forms with d. Residues, ends and D or L forms follow the SMILES beside them. [ ]: non-standard residue; d: D form. ξ: configuration not given here. *: point of attachment. γ4hArg(2R,3R-(OH)2) = N=C(N)NCCC[C@H](N[*:1])[C@@H](O)[C@@H](O)C(=O)[*:2]; Gln(3S,4R-Me2) = C[C@H]([C@H](N)C(=O)O)[C@@H](C)C(N)=O; X50 = CC(C)C[C@H](C)[C@@H](O)[C@@H](C)C(=O)*; X51 = COC(c1ccc(O)cc1)C(N[*:1])C(=O)[*:2]; ξThz(5,5-Me2) = CC1(C)SCNC1C(=O)O; NMeQ = CN[C@@H](CCC(N)=O)C(=O)O; Thr(3ξ) = CC(O)[C@H](N)C(=O)O; NMeA = CN[C@@H](C)C(=O)O

Some test systems named below: COLO 205; SF-268; SNB-78; SN12C; IGROV-1; UACC-257; SK-MEL-28; 786-0; A498; HL-60; NCI-H23; NCI-H226; T47D; NCI-H522; SNB-19; UACC-62; LOX IMVI; DU-145; MDA-N; SR.
What all share (assay): growth of human tumour cells (NCI), 48 h

On to `CC12CC3C(CC1SCC(=O)O2)C3(C)C` (stereo not drawn), for which the GI50 with COLO 205, with SF-268, in the test with SNB-78, with SN12C, in the test on IGROV-1 and in the test with UACC-257 was > 100 µM (inactive) each time. Also, the GI50 is > 100 µM (inactive) in the test on SK-MEL-28; > 100 µM (inactive) with 786-0; 16.6 µM (inactive) with A498; > 100 µM (inactive) in the test with HL-60; > 100 µM (inactive) in the test with NCI-H23.

Take `COc1ccc(/C(CC2OC(=O)c3ccccc32)=N\NC(N)=O)cc1` (stereo not drawn): the GI50 with NCI-H226, with T47D, in the test with COLO 205, in the test with SF-268, in the test with NCI-H522 and in the test with SN12C was > 100 µM (inactive) in each case. The GI50 in the test with SNB-19, with UACC-62, in the test with IGROV-1, in the test with UACC-257, in the test on LOX IMVI and in the test with DU-145 was > 100 µM (inactive) throughout. The GI50 with SK-MEL-28, in the test with MDA-N, in the test on 786-0, in the test on A498, with SR and in the test on HL-60 was > 100 µM (inactive) in each case. Further, the GI50 in the test on NCI-H23 is > 100 µM (inactive).

Consider `CSC(=N/N=C(\C)c1ccc(S(=O)(=O)N(C)c2ccccc2)cc1)SC`, for which the GI50 with NCI-H226 is > 100 µM (inactive); in the test with T47D it was > 60.7 µM (inactive); in the test on COLO 205, > 67.1 µM (inactive); in the test with SF-268, > 66.5 µM (inactive); in the test on NCI-H522 it was > 100 µM (inactive); in the test on SN12C, > 66.2 µM (inactive). For the same compound, the GI50 with SNB-19 was > 66.2 µM (inactive); in the test on UACC-62, > 65.8 µM (inactive); in the test on IGROV-1, > 61.4 µM (inactive); with UACC-257 it was > 100 µM (inactive); with LOX IMVI, > 69.7 µM (inactive); with DU-145 it was > 66.4 µM (inactive). In addition, the GI50 in the test on SK-MEL-28 is > 67.9 µM (inactive); with MDA-N, > 66.2 µM (inactive); in the test on 786-0, > 64.9 µM (inactive); in the test with A498, > 63.8 µM (inactive); in the test on SR, > 59.6 µM (inactive); in the test with HL-60, > 43.5 µM (inactive). The GI50 in the test with NCI-H23 was > 63.1 µM (inactive).

In the case of `CC[C@H](C)C1=C(OC(C)=O)[N@+]2([O-])Oc3ccc(-c4c(OC(C)=O)c(OC(C)=O)c(-c5ccc(OC(C)=O)cc5)c(OC(C)=O)c4OC(C)=O)cc3O[C@]2([C@@H](C)CC)C(=O)N1OC(C)=O`, the GI50 was 17.6 µM (inactive) in the test on NCI-H226; 10.5 µM (inactive) with T47D; 8.15 µM (inactive) in the test on COLO 205; 14.7 µM (inactive) with SF-268; 8.05 µM (inactive) in the test with NCI-H522; 17.9 µM (inactive) in the test with SN12C. Also, the GI50 is 13.7 µM (inactive) in the test on SNB-19; 9.46 µM (inactive) in the test with UACC-62; 9.29 µM (inactive) in the test with IGROV-1; 13.7 µM (inactive) with UACC-257; 10.2 µM (inactive) in the test on LOX IMVI; 16.6 µM (inactive) in the test on DU-145. Moreover, the GI50 was 12.2 µM (inactive) in the test with SK-MEL-28; 9.79 µM (inactive) in the test with MDA-N; 13.6 µM (inactive) with 786-0; 14.1 µM (inactive) in the test on A498; 12.6 µM (inactive) in the test on SR; 10.5 µM (inactive) in the test on HL-60. Also, in the test on NCI-H23, the GI50 is 15.7 µM (inactive).

As to `CC(C)(C)NC(=O)NC12CC3CC(CC(F)(C3)C1)C2`, the GI50 in the test on COLO 205, with SNB-78, in the test on NCI-H522, in the test with SNB-19, in the test on UACC-62 and in the test with IGROV-1 was > 100 µM (inactive) throughout. In addition, the GI50 in the test with UACC-257, with LOX IMVI, in the test on SK-MEL-28, in the test on 786-0, with A498 and with HL-60 was > 100 µM (inactive) each time. The GI50 in the test on NCI-H23 is > 100 µM (inactive).

As for `O=C(CCc1n[nH]c(=S)o1)Nc1cc(Cl)ccc1Cl`, the GI50 is > 100 µM (inactive) in the test on NCI-H226; > 100 µM (inactive) in the test on COLO 205; 56.6 µM (inactive) in the test with SF-268; > 100 µM (inactive) in the test with SNB-78; > 100 µM (inactive) with SN12C; > 100 µM (inactive) with SNB-19. In addition, the GI50 in the test on UACC-62 was > 100 µM (inactive); in the test on IGROV-1 it was > 100 µM (inactive); in the test on UACC-257 it was > 100 µM (inactive); with SK-MEL-28 it was > 100 µM (inactive); with 786-0, 29.6 µM (inactive); in the test on A498 it was > 100 µM (inactive). Also, the GI50 is 30.5 µM (inactive) with HL-60 and > 100 µM (inactive) in the test on NCI-H23.

With `CSCC[C@H](NC(=O)[C@H](CC(C)C)NC(=O)[C@H](Cc1c[nH]cn1)NC(=O)CNC(=O)C1N(C(=O)[C@@H](C)NC(=O)[C@H](Cc2c[nH]c3ccccc23)NC(=O)[C@H](CCC(N)=O)NC(=O)[C@@H](N)CC(N)=O)CSC1(C)C)C(N)=O` (stereo partly drawn) (H-NQW[dA][ξThz(5,5-Me2)]GHLM-NH2), the GI50 with NCI-H226, in the test with T47D, in the test with COLO 205, with SF-268, in the test on NCI-H522 and in the test on SN12C was > 25 µM (inactive) throughout. Further, the GI50 in the test with SNB-19, in the test with UACC-62, in the test on IGROV-1, in the test on UACC-257, in the test with LOX IMVI and with DU-145 was > 25 µM (inactive) throughout. Further, the GI50 in the test on SK-MEL-28, with MDA-N, in the test with 786-0, with A498, in the test with SR and in the test on HL-60 was > 25 µM (inactive) each time. Also, in the test with NCI-H23, the GI50 is > 25 µM (inactive).

On to `COC(c1ccc(O)cc1)C1NC(=O)[C@H](CCC(N)=O)N(C)C(=O)[C@H](CC(C)C)NC(=O)[C@@H](CCCN=C(N)N)NC(=O)[C@H](C(C)O)NC(=O)[C@@H](NC(=O)[C@@H](NC(=O)[C@H](O)[C@H](O)[C@H](CCCN=C(N)N)NC(=O)[C@H](C)NC(=O)[C@H](C)[C@H](O)[C@@H](C)CC(C)C)[C@@H](C)[C@@H](C)C(N)=O)[C@@H](C)OC(=O)[C@H](C)N(C)C1=O` (stereo partly drawn) (X50-A[γ4hArg(2R,3R-(OH)2)][Gln(3S,4R-Me2)]T[Thr(3ξ)][dR]L[NMeQ][X51][NMeA]; ester 4-C), for which the GI50 in the test with NCI-H226 is 0.212 µM (active); in the test with T47D, 0.138 µM (active); in the test with COLO 205 it was 0.0881 µM (active); with SF-268, 0.0525 µM (active); in the test on NCI-H522, 0.0598 µM (active); in the test on SN12C it was 0.149 µM (active). Moreover, the GI50 in the test on SNB-19 is 0.0929 µM (active); in the test on UACC-62, 0.126 µM (active); in the test on IGROV-1 it was 0.0746 µM (active); in the test with UACC-257, 0.113 µM (active); in the test with LOX IMVI, 0.482 µM (active); in the test on DU-145, 0.0764 µM (active). Further, the GI50 in the test with SK-MEL-28 is 0.223 µM (active); in the test on MDA-N, 0.135 µM (active); in the test with 786-0, 0.204 µM (active); in the test on A498, 0.641 µM (active); with SR, 0.143 µM (active); with HL-60, 0.167 µM (active). Moreover, the GI50 in the test on NCI-H23 was 0.0944 µM (active).
